Molecules are shown by their SMILES. pIC50: −log10 of the molar value.

What is called pIC50 is −log10 of the IC50, conventionally taken in molar units.

The first assay addresses HIV-1 integrase (Human immunodeficiency virus type 1 group M subtype B, UniProt P04585). The assay can be described thus: HIV-1 integrase inhibition assay (radiolabeled duplex substrate corresponding to the U5 end of the HIV LTR). The format is biochemical.
Conditions: not given
As for the experimental part:
For the purpose of Table 1 to 4, the HIV-1 integrase inhibition assay was carried out following a known procedure (Burke, Jr. T. R. et al., J. Med. Chem. 38, 4171-4178 (1995)). A suitable radiolabeled duplex substrate corresponding to the U5 end of the HIV LTR was used.
For the purposes of Table 1 to 4 the HIV-1 integrase inhibition assay was based on a known procedure (Hazuda, D. J. et al., Nucleic Acids Res. 22 1121-1122 (1994)).
`O=C(C[C@H](NC(=O)c1ccc(O)c(O)c1)C(=O)NCCc1ccc(O)c(O)c1)OC1CCCCC1` [Example 1, N-[Nα-(3,4-Dihydroxybenzoyl)-Oγ-cyclohexyl-L-aspartyl]dopamine] gave a pIC50 of 4.47. Consider `Nc1cc(C(=O)N[C@H](Cc2cn(C(c3ccccc3)(c3ccccc3)c3ccccc3)cn2)C(=O)NCCc2ccc(O)c(O)c2)ccc1O` [Example 2, N-[Nα-(3-Amino-4-hydroxybenzoyl)-Nτ-trityl-D-histidinyl]dopamine], for which the negative-log IC50 (pIC50) was below 5.30. Same read-out and setting: under `O=C(NCCCC[C@H](NC(=O)c1ccc(O)c(O)c1)C(=O)O)c1ccc(O)c(O)c1` [Example 3, Nα,Nε-di-(3,4-Dihydroxybenzoyl)-L-lysine] stands 4.85. Same read-out and setting: under `O=C(N[C@@H](Cc1ccc(O)cc1)C(=O)NCCc1ccc(O)c(O)c1)c1cnc(O)nc1O` [Example 4, N-[Nα-(2,4-Dihydroxypyrimidinyl-5-carbonyl)-L-tyrosyl]dopamine] stands below 5.00. In turn, `O=C(/C=C/c1ccc(O)c(O)c1)NCCCC[C@H](NC(=O)/C=C/c1ccc(O)c(O)c1)C(=O)NCCc1ccc(O)c(O)c1` [Example 5, N-(Nα,Nε-Dicaffeoyl-L-lysyl)dopamine] gave a pIC50 of 6.29.

The molecule `O=C(/C=C/c1ccc(O)c(O)c1)NCCCC[C@H](NC(=O)/C=C/c1ccc(O)c(O)c1)C(=O)OCc1ccccc1` [Example 6, Nα,Nε-Dicaffeoyl-L-lysine Benzyl Ester] had a negative-log IC50 (pIC50) of 5.57. Molecule `C[C@@H](OCc1ccccc1)[C@H](NC(=O)c1ccc(O)c(O)c1)C(=O)NCCc1ccc(O)c(O)c1` [Example 9, N-[Nα-(3,4-Dihydroxybenzoyl)-O-benzyl-L-threonyl]dopamine] had a pIC50 below 5.30. On the same count and under the same terms, under `O=C(/C=C/c1ccc(O)c(O)c1)NCCC[C@H](NC(=O)/C=C/c1ccc(O)c(O)c1)C(=O)NCCc1ccc(O)c(O)c1` [Example 11, N-(Nα,Nδ-Dicaffeoyl-L-ornithyl)dopamine] stands 6.06; under `O=C(/C=C/c1ccc(O)c(O)c1)N[C@@H](CSC(c1ccccc1)(c1ccccc1)c1ccccc1)C(=O)NCCc1ccc(O)c(O)c1` [Example 12, N-(Nα-Caffeoyl-S-trityl-L-cysteinyl)dopamine], 6.33. Turning to `O=C(C=Cc1ccc(O)c(O)c1)NC(Cc1cn(C(c2ccccc2)(c2ccccc2)c2ccccc2)cn1)C(=O)NCCc1ccc(O)c(O)c1` [Example 13, N-(Nα-Caffeoyl-Nτ-trityl-L-histidinyl)dopamine], the pIC50 is 6.43. The molecule `O=C(N[C@@H](Cc1cn(C(c2ccccc2)(c2ccccc2)c2ccccc2)cn1)C(=O)NCCc1ccc(O)c(O)c1)c1ccc(O)c(O)c1` [Example 14, N-[Nα-(3,4-Dihydroxybenzoyl)-Nτ-trityl-L-histidinyl]dopamine] had a negative logarithm of the IC50 (pIC50) of 7.19. As for `O=C(N[C@@H](Cc1ccc(O)c(O)c1)C(=O)NCCc1ccc(O)c(O)c1)c1ccc(O)c([N+](=O)[O-])c1` [Example 15, N-[Nα-(4-Hydroxy-3-nitrobenzoyl)-L-3,4-dihydroxyphenylalanyl]dopamine], the pIC50 is 6.36. Same read-out and setting: with `O=C(N[C@H](Cc1cn(C(c2ccccc2)(c2ccccc2)c2ccccc2)cn1)C(=O)NCCc1ccc(O)c(O)c1)c1ccc(O)c(O)c1` [Example 16, N-[Nα-(3,4-Dihydroxybenzoyl)-Nτ-trityl-D-histidinyl]dopamine] the figure was 6.81; with `O=C(N[C@@H](Cc1cn(C(c2ccccc2)(c2ccccc2)c2ccccc2)cn1)C(=O)NCCc1ccc(O)c(O)c1)c1ccc(O)c([N+](=O)[O-])c1` [Example 17, N-[Nα-(4-Hydroxy-3-nitrobenzoyl)-Nτ-trityl-L-histidinyl]dopamine], 5.80; with `O=C(N[C@H](Cc1cn(C(c2ccccc2)(c2ccccc2)c2ccccc2)cn1)C(=O)NCCc1ccc(O)c(O)c1)c1ccc(O)c([N+](=O)[O-])c1` [Example 18, N-[Nα-(4-Hydroxy-3-nitrobenzoyl)-Nτ-trityl-D-histidinyl]dopamine], 6.25.

As for `O=C(C=Cc1ccc(O)c(O)c1)NC(Cc1cn(-c2ccc([N+](=O)[O-])cc2[N+](=O)[O-])cn1)C(=O)NCCc1ccc(O)c(O)c1` [Example 19, N-[Nα-Caffeoyl-Nτ-(2,4-dinitrophenyl)-L-histidinyl]dopamine], the pIC50 was 6.25. On the same count and under the same terms, with `Nc1ccc(C(=O)N[C@@H](Cc2ccc(O)c(O)c2)C(=O)O)cc1O` [Example 20, Nα-(4-Amino-3-hydroxybenzoyl)-L-3,4-dihydroxyphenylalanine] the figure was below 5.30. Still for that read-out and setting: under `O=C(N[C@@H](Cc1cn(-c2ccc([N+](=O)[O-])cc2[N+](=O)[O-])cn1)C(=O)NCCc1ccc(O)c(O)c1)c1ccc(O)c(O)c1` [Example 21, N-[Nα-(3,4-Dihydroxybenzoyl)-Nτ-(2,4-dinitrophenyl)-L-histidinyl]dopamine] stands 6.82; under `O=C(N[C@@H](Cc1cn(-c2ccc([N+](=O)[O-])cc2[N+](=O)[O-])cn1)C(=O)NCc1ccc(O)c(O)c1)c1ccc(O)c(O)c1` [Example 23, N-[Nα-(3,4-Dihydroxybenzoyl)-Nτ-(2,4-dinitrophenyl)-L-histidinyl]-3,4-dihydroxybenzylamine], 6.58; under `CC(C)(C)OC(=O)N[C@@H](Cc1cn(-c2ccc([N+](=O)[O-])cc2[N+](=O)[O-])cn1)C(=O)NCc1ccc(O)c(O)c1` [Example 24, N-[Nα-tert-Butoxycarbonyl-Nτ-(2,4-dinitrophenyl)-L-histidinyl]-3,4-dihydroxybenzylamine], below 5.30. As to `O=C(N[C@@H](Cc1cn(C(c2ccccc2)(c2ccccc2)c2ccccc2)cn1)C(=O)NCc1ccc(O)c(O)c1)c1ccc(O)c(O)c1` [Example 25, N-[Nα-(3,4-Dihydroxybenzoyl)-Nτ-trityl-L-histidinyl]-3,4-dihydroxybenzylamine], the pIC50 was below 6.00.

Take `Cc1ccc(C(NC(=O)CC[C@H](NC(=O)c2ccc(O)c([N+](=O)[O-])c2)C(=O)NCc2ccc(O)c(O)c2)(c2ccccc2)c2ccccc2)cc1` [Example 26, N-[Nα-(4-Hydroxy-3-nitrobenzoyl)-Nδ-methyltrityl-L-glutaminyl]-3,4-dihydroxybenzylamine]: the pIC50 was 6.27. `O=C(CCc1ccc(O)c(O)c1)N[C@@H](Cc1cn(C(c2ccccc2)(c2ccccc2)c2ccccc2)cn1)C(=O)NCCc1ccc(O)c(O)c1` [Example 27, N-(Nα-Dihydrocaffeoyl-Nτ-trityl-L-histidinyl)dopamine] had a negative-log IC50 (pIC50) below 5.30. For `O=C(N[C@@H](Cc1cn(C(c2ccccc2)(c2ccccc2)c2ccccc2)cn1)C(=O)O)c1ccc(O)c(O)c1` [Example 29, Nα-(3,4-Dihydroxybenzoyl)-Nτ-trityl-L-histidine], the negative-log IC50 (pIC50) is 5.80. The same measure, in the same setting: under `O=C(C=Cc1ccc(O)c(O)c1)NC(Cc1cn(C(c2ccccc2)(c2ccccc2)c2ccccc2)cn1)C(=O)NCc1ccc(O)c(O)c1` [Example 31, N-(Nα-Caffeoyl-Nτ-trityl-L-histidinyl)-3,4-dihydroxybenzylamine] stands 6.44.

The assay is the same for the next values; noted with them: Table 1, compounds of formula II′; read-out: IC50.
Turning to `Cc1ccc(C(c2ccccc2)(c2ccccc2)n2cnc(C[C@H](NC(=O)CCc3ccc(O)c(O)c3)C(=O)NCCc3ccc(O)c(O)c3)c2)cc1` [Example 28, N-(Nα-Dihydrocaffeoyl-Nτ-methyltrityl-L-histidinyl)dopamine], the negative logarithm of the IC50 (pIC50) was 6.15.
